According to patent US8901118B2, “Compounds and methods for kinase modulation, and indications therefor” (Plexxikon Inc., priority 2010, dated 2014):

How the values were obtained:
[1] = target: Fms kinase (Homo sapiens, UniProt P07333); assay: Fms kinase biochemical activity assay (AlphaScreen, biotin-(E4Y)10 phosphorylation); conditions: 100 μM ATP; read-out: Biochemical Inhibition IC50 Fms
Experimental: In one assay the biochemical activity IC50 values are determined with respect to inhibition of Fms kinase activity, where inhibition of phosphorylation of a peptide substrate is measured as a function of compound concentration. Compounds to be tested, dissolved in DMSO (1 μL), are added to a white 384-well plate (Costar #3705). Working stocks of Fms kinase (Invitrogen #PV3249), biotin-(E4Y)10 substrate (Upstate Biotech, Cat#12-440), and ATP (Sigma, Cat#A-3377) are prepared in 25 mM Hepes pH 7.5, 0.5 mM MgCl2, 2 mM MnCl2, 2 mM DTT, 0.01% BSA, and 0.01% Tween-20. All components are added to the 384-well plate for a final concentration of 1 ng/well Fms, 30 nM biotin-(E4Y)10 (Upstate Biotechnology) and 100 μM ATP in a volume of 20 μL. Each sample is at 5% DMSO. The plate is then incubated for 20 minutes at 30° C. Just before use, working stocks of donor and acceptor beads from the AlphaScreen PY20 Detection Kit (PerkinElmer, Cat#676601M) are prepared in 25 mM Hepes pH 7.5, pH 7.4, 100 mM EDTA, 0.01% BSA. To stop the reaction, the plate is uncovered in the dark and 5 μL of Donor Beads solution (Streptavidin beads) is added to each well. The plate is incubated at room temperature for 20 minutes. Five microliters of Acceptor Beads solution (PY20 coated beads) are then added to each well. The final concentration of each bead is 10 μg/mL. The plates are incubated at room temperature for 60 minutes. Fluorescence signal is recorded on the Envision reader. Phosphorylated substrate results in binding of the PY20 antibody and association of the donor and acceptor beads such that signal correlates with kinase activity. The signal vs. compound concentration is used to determine the IC50.

[2] = target: CYP2C19 (Homo sapiens, UniProt P33261); assay: CYP2C19 inhibition (fluorescent substrate CEC); assay type: in vitro ADME; conditions: read-out: Cyp IC50 2C19
Chain of CYP2C19 (P33261 whole entry): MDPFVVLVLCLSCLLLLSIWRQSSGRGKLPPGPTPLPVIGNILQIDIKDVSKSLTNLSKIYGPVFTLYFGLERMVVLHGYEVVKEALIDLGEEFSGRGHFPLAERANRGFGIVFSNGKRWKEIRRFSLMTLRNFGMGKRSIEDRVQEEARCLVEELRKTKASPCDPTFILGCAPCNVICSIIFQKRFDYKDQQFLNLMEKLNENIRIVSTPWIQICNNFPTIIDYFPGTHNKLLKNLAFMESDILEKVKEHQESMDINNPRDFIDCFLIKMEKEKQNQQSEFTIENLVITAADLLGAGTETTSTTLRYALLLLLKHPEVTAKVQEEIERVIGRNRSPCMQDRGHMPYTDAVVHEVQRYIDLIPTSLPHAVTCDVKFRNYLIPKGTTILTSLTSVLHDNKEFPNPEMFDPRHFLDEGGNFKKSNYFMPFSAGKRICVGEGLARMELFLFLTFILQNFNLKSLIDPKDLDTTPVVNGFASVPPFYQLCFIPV
Experimental: (§1) CYP (Cytochrome P450) enzymes are the major drug metabolizing enzymes present in the liver. The inhibition of CYP enzyme activity (IC50) for each of CYP1A2, CYP2C19, CYP2C9, CYP2D6, CYP3A4(BFC) and CYP3A4(BQ) is determined for compounds, where inhibition of metabolism of a known substrate leads to a decrease in the fluorescence of the metabolized product. The fluorescence of the product is monitored as a function of compound concentration. Compounds are dissolved in DMSO to a concentration of 100 mM. These are diluted 1 μL into 82 μL of acetonitrile. An 11 μL aliquot of this solution is then added to 204 μL of cofactor mix (1.3% NADPH Regeneration system Solution A, 1.04% NADPH Regeneration system Solution B from BD Biosciences, 5% acetonitrile and 0.05% DMSO). These are then serially diluted 1:1 (160 μL to 160 μL co-factor mix) for a total of 10 points. A 10 μL aliquot of this final mixture is dispensed into 384 well assay plates and incubated for 10 minutes at 37° C. […] Assay plates are incubated at 37° C. (CYP1A2-15 min; CYP2C9-45 min; CYP2C19, 2D6 and 3A4-30 min) and read in a Tecan Safire 2 plate reader (CYP1A2, 2C19 and 3A4 409 ex/460 em; CYP2C9 and 2D6 409 ex/530 em). The signal versus compound concentration is used to determine the IC50. The enzymes and substrates for this assay are obtained from BD Biosciences.

[3] = target: TrkA kinase (Homo sapiens, UniProt P04629); assay: TrkA kinase biochemical activity assay (AlphaScreen); conditions: 100 μM ATP; read-out: Biochemical Inhibition IC50 TrkA
Chain of TrkA kinase (P04629 33-796): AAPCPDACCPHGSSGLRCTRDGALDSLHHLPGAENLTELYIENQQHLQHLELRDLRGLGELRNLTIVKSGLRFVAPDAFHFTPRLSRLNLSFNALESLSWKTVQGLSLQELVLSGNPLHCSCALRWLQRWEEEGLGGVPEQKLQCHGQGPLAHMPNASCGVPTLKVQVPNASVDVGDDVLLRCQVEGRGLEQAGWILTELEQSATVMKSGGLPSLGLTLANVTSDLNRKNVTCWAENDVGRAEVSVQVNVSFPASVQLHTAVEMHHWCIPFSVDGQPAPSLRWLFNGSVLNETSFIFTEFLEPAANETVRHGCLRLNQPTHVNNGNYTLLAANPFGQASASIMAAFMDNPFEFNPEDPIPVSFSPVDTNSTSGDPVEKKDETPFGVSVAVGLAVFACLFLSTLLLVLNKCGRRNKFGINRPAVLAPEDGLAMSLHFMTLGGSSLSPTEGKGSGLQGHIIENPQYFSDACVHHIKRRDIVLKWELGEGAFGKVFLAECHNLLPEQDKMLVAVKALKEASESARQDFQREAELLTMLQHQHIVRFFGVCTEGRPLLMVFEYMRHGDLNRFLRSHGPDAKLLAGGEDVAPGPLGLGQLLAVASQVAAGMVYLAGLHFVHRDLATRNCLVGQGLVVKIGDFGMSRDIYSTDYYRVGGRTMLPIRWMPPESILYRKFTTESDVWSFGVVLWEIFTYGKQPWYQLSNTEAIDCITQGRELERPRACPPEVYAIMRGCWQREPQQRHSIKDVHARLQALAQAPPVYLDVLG
Experimental: In one assay the biochemical activity IC50 values are determined with respect to inhibition of TrkA kinase activity, where inhibition of phosphorylation of a peptide substrate is measured as a function of compound concentration. Compounds to be tested, dissolved in DMSO (1 μL), are added to a white 384-well plate (Costar #3705). Working stocks of TrkA kinase (UBI), biotin-(E4Y)10 substrate (Upstate Biotech, Cat#12-440), and ATP (Sigma, Cat#A-3377) are prepared in 25 mM Hepes pH 7.5, 10 mM MnCl2, 1 mM DTT, 0.01% BSA, and 0.01% Tween-20. All components are added to the 384-well plate for a final concentration of 1 ng/well TrkA, 30 nM biotin-(E4Y)10 and 100 μM ATP in a volume of 20 μL. Each sample is at 5% DMSO. The plate is shaken for 1 minute at 1200 rpm, spun for 1 minute at 1000 rpm, then incubated for 40 minutes at room temperature. Just before use, working stocks of donor and acceptor beads from the AlphaScreen PY20 Detection Kit (PerkinElmer, Cat#676601M) are prepared in 25 mM Hepes pH 7.5, 100 mM EDTA. 0.01% BSA. Donor Beads solution (Streptavidin beads) is added (5 μL) to each well to final bead concentration of 10 μg/mL. The plate is incubated at room temperature for 20 minutes. Acceptor Beads solution (PY20 coated beads) are then added to each well (5 μL) to a final concentration of bead at 10 μg/mL. The plates are incubated at room temperature for 60 minutes. Fluorescence signal is recorded on the Envision reader. Phosphorylated substrate results in binding of the PY20 antibody and association of the donor and acceptor beads such that signal correlates with kinase activity. The signal vs. compound concentration is used to determine the IC50. Similar assays are used for TrkB and Trk C kinase.

[4] = target: CYP3A4(BQ) (Homo sapiens, UniProt P08684); assay: CYP3A4(BQ) inhibition; assay type: in vitro ADME; conditions: CYP3A4, substrate BQ; read-out: Cyp IC50 3A4(BQ)
Chain of CYP3A4(BQ) (P08684 whole entry): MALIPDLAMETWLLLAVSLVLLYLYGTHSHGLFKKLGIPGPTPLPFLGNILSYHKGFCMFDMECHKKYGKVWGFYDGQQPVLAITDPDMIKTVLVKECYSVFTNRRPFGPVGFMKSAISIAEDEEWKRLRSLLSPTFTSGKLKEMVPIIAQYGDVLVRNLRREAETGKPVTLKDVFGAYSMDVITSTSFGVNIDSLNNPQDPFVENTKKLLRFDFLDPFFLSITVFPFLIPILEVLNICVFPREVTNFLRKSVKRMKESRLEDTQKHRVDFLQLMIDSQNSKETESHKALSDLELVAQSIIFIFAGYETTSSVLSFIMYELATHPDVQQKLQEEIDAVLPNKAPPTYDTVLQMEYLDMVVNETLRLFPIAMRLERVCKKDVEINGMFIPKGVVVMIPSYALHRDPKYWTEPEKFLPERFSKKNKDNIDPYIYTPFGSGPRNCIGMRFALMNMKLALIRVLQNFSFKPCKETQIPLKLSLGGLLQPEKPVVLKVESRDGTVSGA
Experimental: as §1

Chain of Fms kinase (P07333 20-972): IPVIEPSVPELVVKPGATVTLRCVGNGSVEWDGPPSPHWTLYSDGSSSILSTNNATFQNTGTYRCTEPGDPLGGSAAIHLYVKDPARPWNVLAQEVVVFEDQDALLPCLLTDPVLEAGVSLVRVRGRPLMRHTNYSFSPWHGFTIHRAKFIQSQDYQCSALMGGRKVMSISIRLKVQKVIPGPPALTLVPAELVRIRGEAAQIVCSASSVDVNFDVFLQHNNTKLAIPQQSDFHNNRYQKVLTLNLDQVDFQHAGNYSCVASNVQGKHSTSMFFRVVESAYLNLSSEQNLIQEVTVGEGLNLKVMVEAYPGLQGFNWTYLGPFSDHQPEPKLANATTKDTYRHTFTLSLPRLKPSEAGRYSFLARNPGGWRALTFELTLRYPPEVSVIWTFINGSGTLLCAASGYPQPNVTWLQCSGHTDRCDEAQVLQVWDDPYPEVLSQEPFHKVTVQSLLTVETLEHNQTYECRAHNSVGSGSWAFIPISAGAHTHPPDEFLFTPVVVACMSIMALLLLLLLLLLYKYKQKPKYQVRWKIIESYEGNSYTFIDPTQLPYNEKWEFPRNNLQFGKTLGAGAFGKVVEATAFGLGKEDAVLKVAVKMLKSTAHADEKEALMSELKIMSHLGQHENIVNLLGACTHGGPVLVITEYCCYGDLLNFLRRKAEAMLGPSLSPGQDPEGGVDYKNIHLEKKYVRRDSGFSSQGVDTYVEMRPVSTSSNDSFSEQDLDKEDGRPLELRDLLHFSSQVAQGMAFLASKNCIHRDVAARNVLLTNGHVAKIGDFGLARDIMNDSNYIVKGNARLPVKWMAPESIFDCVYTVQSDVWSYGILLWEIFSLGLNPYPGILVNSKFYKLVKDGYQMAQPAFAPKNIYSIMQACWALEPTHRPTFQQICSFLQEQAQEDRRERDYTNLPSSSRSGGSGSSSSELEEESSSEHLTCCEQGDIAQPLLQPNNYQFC

IC50 [1] | IC50 [2] | IC50 [3] | IC50 [4] | SMILES
< 100 nM | < 5 µM |  |  | CC1CCC(Nc2ncc(Cc3c[nH]c4ncc(Cl)cc34)cn2)CC1 (stereo not shown) [Compound P-3009, [5-(5-Chloro-1H-pyrrolo[2,3-b]pyridin-3-ylmethyl)-pyrimidin-2-yl]-(4-methyl-cyclohexyl)-amine]
< 10 nM | > 10 µM | < 1000 nM | > 10 µM | Cc1cnc2[nH]cc(Cc3cnc(Nc4ccc(F)cc4)nc3)c2c1 [Compound P-3010, (4-Fluoro-phenyl)-[5-(5-methyl-1H-pyrrolo[2,3-b]pyridin-3-ylmethyl)-pyrimidin-2-yl]-amine]
< 10 nM | > 10 µM | > 1000 nM | > 10 µM | Clc1ccc(Nc2ncc(Cc3c[nH]c4ncc(Cl)cc34)cn2)cc1 [Compound P-3011, (4-Chloro-phenyl)-[5-(5-chloro-1H-pyrrolo[2,3-b]pyridin-3-ylmethyl)-pyrimidin-2-yl]-amine]
< 10 nM | > 10 µM | > 1000 nM | > 10 µM | Fc1ccc(Nc2ncc(Cc3c[nH]c4ncc(Cl)cc34)cn2)cc1 [Compound P-3012, [5-(5-Chloro-1H-pyrrolo[2,3-b]pyridin-3-ylmethyl)-pyrimidin-2-yl]-(4-fluoro-phenyl)-amine]
< 10 nM | < 5 µM |  | > 10 µM | Fc1nc(NC2CCC(F)(F)CC2)ccc1Cc1c[nH]c2ncc(Cl)cc12 [Compound P-3013, [5-(5-Chloro-1H-pyrrolo[2,3-b]pyridin-3-ylmethyl)-6-fluoro-pyridin-2-yl]-(4,4-difluoro-cyclohexyl)-amine]
< 10 nM |  | > 1000 nM |  | Fc1ccccc1Nc1ncc(Cc2c[nH]c3ncc(Cl)cc23)cn1 [Compound P-3014, [5-(5-Chloro-1H-pyrrolo[2,3-b]pyridin-3-ylmethyl)-pyrimidin-2-yl]-(2-fluoro-phenyl)-amine]
< 10 nM |  | > 1000 nM |  | Clc1cnc2[nH]cc(Cc3cnc(Nc4ccccc4Cl)nc3)c2c1 [Compound P-3015, (2-Chloro-phenyl)-[5-(5-chloro-1H-pyrrolo[2,3-b]pyridin-3-ylmethyl)-pyrimidin-2-yl]-amine]
< 100 nM | < 10 µM |  | > 10 µM | COc1ccc(Nc2ccc(C(=O)c3c[nH]c4ncnc(NC(C)(C)C)c34)c(F)n2)cn1 [Compound P-4055, [4-(tert-butylamino)-7H-pyrrolo[2,3-d]pyrimidin-5-yl]-[2-fluoro-6-[(6-methoxy-3-pyridyl)amino]-3-pyridyl]methanone]
< 100 nM | 5 to 20 µM |  | > 10 µM | COc1ccc(Nc2ccc(C(=O)c3c[nH]c4ncnc(NC5CCC(F)(F)CC5)c34)c(F)n2)cn1 [Compound P-4056, [4-[(4,4-difluorocyclohexyl)amino]-7H-pyrrolo[2,3-d]pyrimidin-5-yl]-[2-fluoro-6-[(6-methoxy-3-pyridyl)amino]-3-pyridyl]methanone]
< 100 nM | > 10 µM | < 1000 nM | > 10 µM | O=C(c1ccc(NC2CCC(F)(F)CC2)nc1Cl)c1c[nH]c2ncnc(NCC(F)(F)F)c12 [Compound P-4057, [2-chloro-6-[(4,4-difluorocyclohexyl)amino]-3-pyridyl]-[4-(2,2,2-trifluoroethylamino)-7H-pyrrolo[2,3-d]pyrimidin-5-yl]methanone]
< 100 nM | > 10 µM | < 1000 nM | > 10 µM | CNc1ncnc2[nH]cc(C(=O)c3ccc(NC4CCC(F)(F)CC4)nc3Cl)c12 [Compound P-4058, [2-chloro-6-[(4,4-difluorocyclohexyl)amino]-3-pyridyl]-[4-(methylamino)-7H-pyrrolo[2,3-d]pyrimidin-5-yl]methanone]
< 100 nM | > 10 µM | < 100 nM | > 10 µM | O=C(c1ccc(NC2CCC(F)(F)CC2)nc1Cl)c1c[nH]c2ncnc(NC3CC3)c12 [Compound P-4059, [2-chloro-6-[(4,4-difluorocyclohexyl)amino]-3-pyridyl]-[4-(cyclopropylamino)-7H-pyrrolo[2,3-d]pyrimidin-5-yl]methanone]
< 10 nM | > 10 µM | < 10 nM | > 10 µM | CCNc1ncnc2[nH]cc(C(=O)c3ccc(Nc4ccc(C5CC5)nc4)nc3F)c12 [Compound P-4060, [6-[(6-cyclopropyl-3-pyridyl)amino]-2-fluoro-3-pyridyl]-[4-(ethylamino)-7H-pyrrolo[2,3-d]pyrimidin-5-yl]methanone]
< 100 nM | > 10 µM | < 100 nM | > 10 µM | O=C(c1ccc(NC2CCC(F)(F)CC2)nc1F)c1c[nH]c2ncnc(NCC(F)(F)F)c12 [Compound P-4061, [6-[(4,4-difluorocyclohexyl)amino]-2-fluoro-3-pyridyl]-[4-(2,2,2-trifluoroethylamino)-7H-pyrrolo[2,3-d]pyrimidin-5-yl]methanone]
< 10 nM | > 10 µM | < 10 nM | > 10 µM | O=C(c1ccc(NC2CCC(F)(F)CC2)nc1F)c1c[nH]c2ncnc(NC3CC3)c12 [Compound P-4062, [4-(cyclopropylamino)-7H-pyrrolo[2,3-d]pyrimidin-5-yl]-[6-[(4,4-difluorocyclohexyl)amino]-2-fluoro-3-pyridyl]methanone]
< 10 nM |  | < 10 nM |  | CNc1ncnc2[nH]cc(C(=O)c3ccc(Nc4ccc(OC)nc4)nc3OC)c12 [Compound P-4085, [2-methoxy-6-[(6-methoxy-3-pyridyl)amino]-3-pyridyl]-[4-(methylamino)-7H-pyrrolo[2,3-d]pyrimidin-5-yl]methanone]
< 1000 nM |  | < 100 nM |  | CCc1ccc(Nc2ccc(C(=O)c3c[nH]c4ncnc(Nc5ccc(C)nc5)c34)c(F)n2)cn1 [Compound P-4086, [6-[(6-ethyl-3-pyridyl)amino]-2-fluoro-3-pyridyl]-[4-[(6-methyl-3-pyridyl)amino]-7H-pyrrolo[2,3-d]pyrimidin-5-yl]methanone]
